Consider 14 compounds from PubChem BioAssay (NCI).

A word on the TGI: it is the concentration giving total growth inhibition. A high value points to less potent growth arrest.

Test systems include HCT-116 colon; LOX IMVI melanoma; MALME-3M melanoma; MDA-MB-231 breast; MDA-N; OVCAR-4 ovarian; OVCAR-5 ovarian; SF-268 CNS; SK-MEL-28 melanoma.
Test in all cases: DTP human tumour cell line panel, 48 h

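In this assay, cells in 96-well plates receive the compound at five concentrations for 48 hours. Endpoints are linearly interpolated between the surrounding concentrations. TGI is the concentration that stops growth completely.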 Where only a bound is given, the exact number is not on record here.

For the compound `CCN(c1cccc(NC(=S)Nc2ccccc2N(CC)c2cc(-c3ccccc3)no2)c1)c1cc(-c2ccccc2)no1`, the TGI in the assay with HCT-116 colon, in the assay on LOX IMVI melanoma, in the assay on MALME-3M melanoma, with MDA-MB-231 breast, with MDA-N and with OVCAR-4 ovarian was more than 100 µM in each case. Also, the TGI with OVCAR-5 ovarian, in the assay with SF-268 CNS and in the assay on SK-MEL-28 melanoma was more than 100 µM throughout.
As to `OC1(c2ccccc2)CSC2=Nc3ccccc3C3CCN1N23` (stereo unspecified), the TGI in the assay on HCT-116 colon was 44.1 µM; in the assay with LOX IMVI melanoma it was 36.9 µM; in the assay with MALME-3M melanoma, 81.7 µM; in the assay on MDA-MB-231 breast, 31.9 µM; with MDA-N, 27.2 µM; in the assay with OVCAR-4 ovarian, more than 100 µM. Moreover, the TGI in the assay with OVCAR-5 ovarian is 32 µM; in the assay with SF-268 CNS it was 58.5 µM; in the assay with SK-MEL-28 melanoma, 11.3 µM.
Regarding `Cc1cc(O)c(C(C)C)cc1C1(c2cc(C(C)C)c(O)cc2C)OC(=O)c2ccccc21`, the TGI stood at 3.09 µM in the assay with HCT-116 colon; 3.53 µM in the assay with LOX IMVI melanoma; 5.21 µM with MALME-3M melanoma; 4.54 µM in the assay on MDA-MB-231 breast; 3.11 µM with MDA-N; 5.26 µM in the assay with OVCAR-4 ovarian. In addition, the TGI is 5.92 µM in the assay on OVCAR-5 ovarian, 4.83 µM in the assay on SF-268 CNS and 3.07 µM in the assay on SK-MEL-28 melanoma.
Take `Nc1ccc(CCN2CCN(CCCc3ccccc3)CC2)cc1`: the TGI with HCT-116 colon, in the assay on LOX IMVI melanoma, in the assay with MALME-3M melanoma, in the assay on MDA-MB-231 breast, in the assay on MDA-N and with OVCAR-4 ovarian was more than 100 µM each time. Moreover, the concentration for total growth inhibition (TGI) with OVCAR-5 ovarian, in the assay on SF-268 CNS and in the assay with SK-MEL-28 melanoma was more than 100 µM each time.
`C/C(=C/CC[C@]1(CO)CC[C@]2(CO)[C@H](CC[C@@H]3[C@@]4(C)CC[C@H](OC5OCC(O)C(O)C5OC5OC(CO)C(O)C(O)C5O)C(C)(C)[C@@H]4CC[C@]32C)[C@H]1O)CO` (stereo partly specified): the concentration for total growth inhibition (TGI) in the assay with HCT-116 colon, with LOX IMVI melanoma, in the assay on MALME-3M melanoma, in the assay with MDA-MB-231 breast, in the assay on MDA-N and with OVCAR-4 ovarian was more than 100 µM throughout. Also, the concentration for total growth inhibition (TGI) in the assay on OVCAR-5 ovarian, in the assay with SF-268 CNS and in the assay on SK-MEL-28 melanoma was more than 100 µM each time.
Turning to `C=CCOC(=O)C1C2OC3(C(C(=O)OC)=C2C(=O)OC)c2ccccc2CCC13` (stereo unspecified), the TGI in the assay with HCT-116 colon, in the assay with LOX IMVI melanoma, in the assay with MALME-3M melanoma, in the assay on MDA-MB-231 breast, with MDA-N and in the assay on OVCAR-4 ovarian was more than 10 µM each time. For the same compound, the TGI in the assay on OVCAR-5 ovarian, in the assay with SF-268 CNS and in the assay on SK-MEL-28 melanoma was more than 10 µM each time.
As to `c1ccc(CSCCc2ccncc2)cc1`, the TGI in the assay with HCT-116 colon, in the assay with LOX IMVI melanoma, in the assay on MALME-3M melanoma, in the assay on MDA-MB-231 breast, in the assay with MDA-N and in the assay with OVCAR-4 ovarian was more than 100 µM in each case. The TGI in the assay with OVCAR-5 ovarian, in the assay on SF-268 CNS and with SK-MEL-28 melanoma was more than 100 µM throughout.
Turning to `COc1cccc(NC(=O)C(C#N)=C(SC)SC)c1`, the TGI in the assay with HCT-116 colon, in the assay on LOX IMVI melanoma, in the assay on MALME-3M melanoma, in the assay with MDA-MB-231 breast, with MDA-N and with OVCAR-4 ovarian was more than 100 µM in each case. Besides, the TGI with OVCAR-5 ovarian, in the assay with SF-268 CNS and with SK-MEL-28 melanoma was more than 100 µM throughout.
With `Nc1nc(Cl)c(N)c(NCC2(CO)CC(CCCc3ccccc3)C2)n1` (stereo unspecified), the TGI was more than 100 µM in the assay on HCT-116 colon; 98.7 µM in the assay on LOX IMVI melanoma; 9.92 µM in the assay on MALME-3M melanoma; 99.7 µM in the assay on MDA-MB-231 breast; more than 100 µM with MDA-N; more than 100 µM with OVCAR-4 ovarian. Moreover, the results for the TGI in the assay with OVCAR-5 ovarian, in the assay on SF-268 CNS and with SK-MEL-28 melanoma were more than 100 µM, more than 55.3 µM and more than 100 µM, respectively.
In the case of `COc1ccc(/C=C2\CN(C)C/C(=C\c3ccc(OC)c(OC)c3OC)C2=O)c(OC)c1OC`, the concentration for total growth inhibition (TGI) in the assay on HCT-116 colon came out at 0.196 µM; in the assay on LOX IMVI melanoma, 0.319 µM; in the assay with MALME-3M melanoma, 0.333 µM; in the assay with MDA-MB-231 breast, 0.488 µM; in the assay with MDA-N, 1.25 µM; in the assay on OVCAR-4 ovarian, 1.13 µM. Moreover, the values for the concentration for total growth inhibition (TGI) in the assay with OVCAR-5 ovarian, in the assay with SF-268 CNS and with SK-MEL-28 melanoma were 0.656 µM, 2.01 µM and 0.393 µM, respectively.
As for `CSCCC(NC(=O)Cc1ccc(C(=O)c2ccccc2)cc1)C(=O)O` (stereo unspecified), the TGI with HCT-116 colon, with LOX IMVI melanoma, with MALME-3M melanoma, in the assay on MDA-MB-231 breast, in the assay with MDA-N and in the assay on OVCAR-4 ovarian was more than 100 µM each time. Moreover, the TGI with OVCAR-5 ovarian, in the assay on SF-268 CNS and in the assay on SK-MEL-28 melanoma was more than 100 µM throughout.
As to `O=C(CSC1=NCCN1)Nc1ccccc1`, the TGI was 59.6 µM in the assay with HCT-116 colon; 39.2 µM in the assay with LOX IMVI melanoma; 60 µM in the assay on MALME-3M melanoma; 50.3 µM with MDA-MB-231 breast; 59 µM in the assay on MDA-N; more than 100 µM in the assay with OVCAR-4 ovarian. Further, the values for the TGI with OVCAR-5 ovarian, in the assay with SF-268 CNS and in the assay on SK-MEL-28 melanoma were more than 100 µM, 93.3 µM and 62.6 µM, respectively.
With `CC(=O)OCC1OC(n2c(=O)[nH]c(=O)c3sccc32)C(Br)C1OC(C)=O` (stereo unspecified), the TGI in the assay on HCT-116 colon, in the assay on LOX IMVI melanoma, with MALME-3M melanoma, with MDA-MB-231 breast, in the assay with MDA-N and with OVCAR-4 ovarian was more than 100 µM each time. Also, the TGI with OVCAR-5 ovarian, with SF-268 CNS and in the assay with SK-MEL-28 melanoma was more than 100 µM in each case.
With `COC(=O)C1=C(OC(=O)c2ccccc2)C(C(=O)OC)[C@]2(O)[C@@H](C(=O)OC)[C@H]1C[C@@H](c1ccccc1)[C@@H]2C(=O)OC` (stereo partly specified), the TGI in the assay on HCT-116 colon was 14.2 µM; in the assay on LOX IMVI melanoma it was 26.7 µM; in the assay with MALME-3M melanoma it was 52.1 µM; with MDA-MB-231 breast, 41.4 µM; in the assay on MDA-N, 3.95 µM; in the assay with OVCAR-4 ovarian, more than 100 µM. Also, the figures for the TGI with OVCAR-5 ovarian, with SF-268 CNS and in the assay with SK-MEL-28 melanoma were 73.9 µM, 36.8 µM and 76.3 µM, respectively.
